Data on 79 molecules can be found in the METLIN SMRT retention time set (Domingo-Almenara et al. 2019).

The nature of the series: gradient 5% acetonitrile 3 min, to 50% in 2 min, to 85% in 15 min, held 3 min, 100 µL/min. Conditions: column: Zorbax Extend-C18 2.1 x 50 mm; eluents: water / acetonitrile, 0.1% formic acid. Summed up: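 Pure standards were run in mixtures of ~100 molecules by HPLC coupled to a quadrupole time-of-flight mass spectrometer. The column was a Zorbax Extend-C18 (2.1 × 50 mm, 1.8 μm) at 100 μL/min, with water and acetonitrile each containing 0.1% formic acid, in positive and negative ionization mode. Dead and dwell volumes were 40 μL and 900 μL. Retention time was taken from computationally picked adduct peaks, each manually inspected, with data collected over 3 months.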
As for `Cn1cc(-c2ccncc2)cc1C(=O)NCc1ccccc1Cl`, the RP-LC retention time is 646 s.

For `Cc1ccc(NC(=O)Cn2cccc2-c2nnc(C3CCC3)o2)c(Cl)c1`, the RP-LC retention time turned out to be 1050 s. Then `CCN1C(=O)C2(CCN(C(C)=O)CC2)c2ccccc21`, with 707 s; and `COc1ccc(F)cc1S(=O)(=O)N1CCC(OCc2noc(C3CCCO3)n2)CC1` (centres undefined), with 870 s; and `CCCOc1ccc(-c2noc(Cc3nc(-c4ccc(OC)c(OC)c4)cs3)n2)cc1`, with 1220 s. Then `O=S(=O)(c1ccc2c(c1)-c1oncc1CO2)N1CCCc2ccccc21`, with 1020 s. As to `Cc1sc(C)c(S(=O)(=O)NCc2ccccc2)c1-c1cc(C(F)(F)F)on1`, the RP-LC retention time worked out at 1140 s. Regarding `CCc1nc(C)c(C)c2nn(Cc3cccc(C#N)c3)c(=O)n12`, the RP-LC retention time is 919 s. As to `COc1ccc(CN2CCC3(CC2)CC(O)CCO3)c(OC)c1` (centres undefined), the RP-LC retention time stood at 581 s.

Molecule `CS(=O)(=O)N1CCN(C(=O)c2ccsc2)CC1` gave an RP-LC retention time of 606 s.

`CCOC(=O)c1ccc(NC(=O)NCc2ccccc2)cc1` showed an RP-LC retention time of 817 s.

As to `COc1ccc(NC(=O)N2C[C@@H](F)C[C@H]2C(=O)N2CCCCC2)cc1`, the RP-LC retention time is 664 s. `Cc1sc(NC(=O)c2ccc(F)cc2)nc1-c1ccc2c(c1)NC(=O)C(C)O2` (centres undefined) returned an RP-LC retention time of 935 s. Take `Cc1cccc(Nc2ncccc2S(N)(=O)=O)c1`: the RP-LC retention time stood at 811 s. Molecule `Cc1ccc(C2Cn3cnc(C(=O)N4CCC(C(=O)NCCc5ccccc5)CC4)c3CO2)cc1` (centres undefined) showed an RP-LC retention time of 826 s.

`O=C(c1cc2occc2c(Nc2ccc(Cl)cc2)n1)N1CCN(c2ccccn2)CC1` gave an RP-LC retention time of 713 s. `Cc1c(Cl)cccc1NC(=O)N1C[C@H](c2nc(-c3ccncc3)no2)[C@@H](C)C1` showed an RP-LC retention time of 827 s.

On to `CC(C)C(NC(=O)c1ccc(CN2C(=O)C3CCCN3C(=O)c3ccccc32)cc1)c1cccs1` (centres undefined), for which the RP-LC retention time worked out at 857 s. Turning to `Cc1cccc(C)c1Nc1c(-c2ccc(Cl)cc2)nc2ncccn12`, the RP-LC retention time worked out at 919 s. In the case of `COc1ccc(NC(=O)C2CN(S(C)(=O)=O)CC23CCCCC3)c(OC)c1` (centres undefined), the RP-LC retention time amounted to 860 s.

With `COc1ccc(S(=O)(=O)N2CCCC(C(=O)NCCCO)C2)cc1C` (centres undefined), the RP-LC retention time came to 709 s. The molecule `COc1ccccc1CCc1nc(-c2ccc3oc(C)nc3c2)no1` had an RP-LC retention time of 1210 s.

The molecule `Cc1noc(-c2ccc(=O)n(Cc3ccccc3C)n2)n1` displayed an RP-LC retention time of 851 s. Molecule `CCCNC(=O)C1CCN(c2nc3ccsc3c(=O)n2Cc2ccc(F)cc2)CC1` showed an RP-LC retention time of 807 s. On to `O=C1NC(=O)[C@@H](c2cn3c4c(cccc24)CCC3)[C@@H]1c1c[nH]c2ccccc12`, for which the RP-LC retention time came out at 947 s.

For the molecule `Cn1c(=O)c2ccn(CC(=O)N3CCN(c4ccc(Cl)cc4)CC3)c2n(C)c1=O`, the RP-LC retention time stood at 752 s. For `COc1ccc(N2CCN(C(=O)CN3C(=O)NC(c4ccc(Cl)cc4)C4=C3COC4=O)CC2)cc1` (centres undefined), the RP-LC retention time was 752 s. `O=C(COc1ccc(F)c(F)c1)NCC1CCOCC1`: the RP-LC retention time is 719 s. The same measure for `Cc1ccc(-c2nnc(C)c(NCc3cccs3)n2)cc1`: 700 s; for `CN1CCc2c(n(CC(O)Cn3nnc4ccccc43)c3ccccc23)C1=O` (centres undefined): 754 s; for `Cc1nn(CC(=O)NC(C)C)c(=O)c2nc(-c3ccccc3)sc12`: 733 s. Regarding `O=C(NCc1cccnc1)c1nnc(-c2ccc(S(=O)(=O)N3CCCCC3)cc2)o1`, the RP-LC retention time was 669 s. With `O=C(Nc1ccc2c(c1)OCCO2)C1CCN(c2cncnc2N2CCCCC2)CC1`, the RP-LC retention time turned out to be 673 s.

Regarding `Cc1oc(-c2ccc(NC(=O)CCc3ccccc3)cc2)nc1Cn1cccn1`, the RP-LC retention time amounted to 897 s. In turn, `CS(=O)(=O)c1ccc([C@@H](O)[C@@H](CF)NC(=O)C(Cl)Cl)cc1` registered an RP-LC retention time of 723 s.

`Cc1nc(-c2nc(-c3cccs3)cs2)cn1CC(=O)Nc1cccc(F)c1`: the RP-LC retention time was 814 s. `Cn1cc(CC(=O)NCc2cccc(Cl)c2)c2cccnc21` registered an RP-LC retention time of 725 s. On to `Cc1ccc(C)c(CNC(=O)C2CCCN(c3cnn(C)c(=O)c3)C2)c1` (centres undefined), for which the RP-LC retention time stood at 723 s. Turning to `COc1ccc(Cn2nnc(C(=O)NCC3CCCO3)c2-n2cccc2)cc1` (centres undefined), the RP-LC retention time amounted to 832 s.

For the molecule `Cn1ncc2c3ccccc3n(CC(=O)N3CCN(c4ccccc4)CC3)c2c1=O`, the RP-LC retention time was determined as 784 s.

In turn, `CCOCCCNc1ccc(-c2nnc(-c3ccc(C)cc3)o2)cn1` displayed an RP-LC retention time of 801 s. Then `Cc1ccccc1N1CCN(C(=O)c2cn3c(n2)CCCC3)CC1`, with 668 s. The same measure for `CC(C)(C)NC(=O)CCc1ccc2nc(-c3ccccc3)[nH]c2c1`: 632 s; for `CCCCn1cc(S(=O)(=O)Nc2cc(F)ccc2C)c2cccnc21`: 995 s.

In the case of `Cc1nc(-c2cc(S(=O)(=O)N3CCCc4ccccc43)c(C)s2)sc1C`, the RP-LC retention time is 1290 s. Turning to `CCCN1C(=O)COc2ccc(-c3csc(NC(=O)c4cccc(Br)c4)n3)cc21`, the RP-LC retention time worked out at 1160 s. Regarding `COc1ccc(-c2nn(CCCC(=O)NCCc3ccc(C)cc3)c(=O)c3noc(C)c23)cc1`, the RP-LC retention time is 950 s. `CCCNC(=O)C1CCN(c2ccc(SCC(=O)Nc3ccccc3OCC)nn2)CC1` gave an RP-LC retention time of 621 s.

`COc1ccccc1N1CCN(c2ccc(-c3nc(-c4ccccc4)no3)cn2)CC1`: the RP-LC retention time was 1350 s.

`O=C(Nc1cccc(-c2ccc(N3CCOCC3)nn2)c1)Nc1ccc(F)c(Cl)c1` had an RP-LC retention time of 770 s. For the molecule `COc1ncc(C(=O)N2CCN(c3ccc(F)cc3)CC2)cn1`, the RP-LC retention time is 735 s.

For the molecule `CCCN1C(=O)c2cc(S(=O)(=O)NCc3ccccc3F)ccc2Oc2cccnc21`, the RP-LC retention time was 1030 s.

For `Cc1sc(NC(=O)CCC2CCCCC2)nc1-c1ccc2c(c1)NC(=O)C(C)O2` (centres undefined), the RP-LC retention time worked out at 679 s.

As for `CC(C)c1ccc(-n2nc(N3CCN(C(=O)c4cc5ccccc5[nH]4)CC3)ccc2=O)cc1`, the RP-LC retention time was 998 s. In the case of `CCCCN1C(=O)C(C)(C(=O)NCc2ccccc2)Oc2cccnc21` (centres undefined), the RP-LC retention time was 972 s. Then `Cn1c(=O)sc2cc(S(=O)(=O)N3CCC(C(=O)NCc4ccco4)CC3)ccc21`, with 739 s. As for `Cc1ccc(NC(=O)C2CC(=O)N(c3n[nH]c4cccc(F)c34)C2)cc1C` (centres undefined), the RP-LC retention time turned out to be 831 s. Then `Cc1cccc(C(=O)N2CCc3cc(CNC(=O)c4cc(-c5cccs5)[nH]n4)ccc32)c1`, with 895 s. The molecule `Cc1oc(-c2ccc(C(=O)NCCN(C)C)cc2)nc1CN1CCc2ccccc21` had an RP-LC retention time of 694 s.

In turn, `CCc1ccc(S(=O)(=O)c2cnc(N3CCN(c4ccccn4)CC3)nc2N)cc1` had an RP-LC retention time of 680 s.

The molecule `N#Cc1cccc(NC(=O)c2cccn2Cc2noc(-c3ccccc3)n2)c1` came in with an RP-LC retention time of 1040 s.

As for `O=C([C@@H]1C[C@H](Oc2cccnc2)CN1C(=O)CC1CCCC1)N1CCCC1`, the RP-LC retention time worked out at 600 s. The same measure for `COCCn1cc(CCNC(=O)Nc2cccc(F)c2C)c2cccnc21`: 774 s. As for `Cc1ccc(S(=O)(=O)N2C[C@@H]3C[C@H](NC(=O)c4cccnc4)[C@H]2C3)cc1C`, the RP-LC retention time stood at 724 s. The same measure for `CCn1nc(C)cc1C(=O)N1CCNC(=O)C1(C)C`: 568 s; for `Cc1ccccc1N1C(=O)CN(S(=O)(=O)c2ccccc2)CC1(C)C(=O)NCCC(C)C` (centres undefined): 970 s. `Cc1ccoc1C(=O)N[C@@H]1CN(c2ncccn2)C[C@H]1CO`: the RP-LC retention time is 588 s. `Cn1ncc(NC(=O)Cc2ccc(Cl)cc2)c(N2CCOCC2)c1=O` registered an RP-LC retention time of 772 s. Molecule `O=c1c2ccccc2c2ccccc2c(=O)n1Cc1ccco1` registered an RP-LC retention time of 966 s. The same measure for `O=C(Cn1cccc(-c2nc(-c3ccc(F)cc3)no2)c1=O)N1CCCC1`: 727 s. Consider `Cc1ccc(C(=O)Nc2cccc(C(F)(F)F)c2)cc1Nc1nc(-c2cccnc2)nc2c1cnn2C`, for which the RP-LC retention time was 788 s.

As to `Cc1ccc(S(=O)(=O)N2CCCC(CCC(=O)NC3CCS(=O)(=O)C3)C2)cc1` (centres undefined), the RP-LC retention time was determined as 765 s. `CCN1CCN(CCNC(=O)c2c(N3CCCC3=O)c3cc(F)ccc3n2CC)CC1` came in with an RP-LC retention time of 614 s. Consider `COc1ccc(NC(=O)Cn2c(=O)c3cc(-c4ccco4)nn3c3ncccc32)c(OC)c1`, for which the RP-LC retention time turned out to be 797 s. The molecule `O=C(Nc1ccc(F)cc1F)C1CCN(S(=O)(=O)c2cc(C(=O)N3CCCC3)cs2)CC1` came in with an RP-LC retention time of 803 s. `Cc1ccc(-c2ncc(C(=O)N3CC=C(c4ccccc4)CC3)c(-c3ccncc3)n2)cc1`: the RP-LC retention time is 1110 s. `CCCS(=O)(=O)N1CC[C@@H]2CN(Cc3ccccc3)[C@@H]2C1` yielded an RP-LC retention time of 607 s. `CC[C@@H](Nc1c(Nc2cccc(C(=O)N(C)C)c2O)c(=O)c1=O)c1cc(C(C)C)co1`: the RP-LC retention time stood at 772 s. In the case of `CC(C)NC(=O)CN1C(=O)CCSc2ccccc21`, the RP-LC retention time came to 708 s.
